Columns and labels:
ROCK1 [1] = target: T1, ROCK1 (Homo sapiens, UniProt Q13464); experiment: ProfilerPro kinase panel, % inhibition at […]; format: biochemical; details: 0.2 µM
STK10 [2] = target: T2, STK10 (Homo sapiens, UniProt O94804); experiment: ProfilerPro kinase panel, % inhibition at […]; format: biochemical; details: 0.2 µM
ROCK2 [3] = target: T3, ROCK2 (Homo sapiens, UniProt O75116); experiment: ProfilerPro kinase panel, % inhibition at […]; format: biochemical; details: 0.2 µM
ARK5 = target: T4, ARK5 (Homo sapiens, UniProt O60285); experiment: biochemical; details: read-out: % inhibition
T4 sequence (O60285 1-661): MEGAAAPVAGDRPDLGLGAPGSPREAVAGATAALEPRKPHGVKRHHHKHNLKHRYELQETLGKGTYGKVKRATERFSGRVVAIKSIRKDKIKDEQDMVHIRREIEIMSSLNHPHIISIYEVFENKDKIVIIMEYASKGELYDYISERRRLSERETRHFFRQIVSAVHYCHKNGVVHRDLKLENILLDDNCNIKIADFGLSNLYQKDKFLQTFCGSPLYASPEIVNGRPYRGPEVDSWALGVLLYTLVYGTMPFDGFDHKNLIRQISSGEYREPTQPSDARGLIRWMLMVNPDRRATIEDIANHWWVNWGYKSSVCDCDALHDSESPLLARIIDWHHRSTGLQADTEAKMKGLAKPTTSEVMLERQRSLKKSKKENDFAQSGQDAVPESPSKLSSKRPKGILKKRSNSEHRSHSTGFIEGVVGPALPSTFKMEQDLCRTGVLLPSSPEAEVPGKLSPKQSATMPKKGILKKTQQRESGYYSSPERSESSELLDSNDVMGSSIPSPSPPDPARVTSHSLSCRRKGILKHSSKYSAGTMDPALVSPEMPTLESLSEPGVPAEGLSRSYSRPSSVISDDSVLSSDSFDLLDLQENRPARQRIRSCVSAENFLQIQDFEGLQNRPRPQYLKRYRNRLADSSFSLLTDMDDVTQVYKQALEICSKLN

IKKbeta = target: T5, IKKbeta (Homo sapiens, UniProt O14920); experiment: biochemical; details: read-out: % inhibition
T5 sequence (O14920 1-756): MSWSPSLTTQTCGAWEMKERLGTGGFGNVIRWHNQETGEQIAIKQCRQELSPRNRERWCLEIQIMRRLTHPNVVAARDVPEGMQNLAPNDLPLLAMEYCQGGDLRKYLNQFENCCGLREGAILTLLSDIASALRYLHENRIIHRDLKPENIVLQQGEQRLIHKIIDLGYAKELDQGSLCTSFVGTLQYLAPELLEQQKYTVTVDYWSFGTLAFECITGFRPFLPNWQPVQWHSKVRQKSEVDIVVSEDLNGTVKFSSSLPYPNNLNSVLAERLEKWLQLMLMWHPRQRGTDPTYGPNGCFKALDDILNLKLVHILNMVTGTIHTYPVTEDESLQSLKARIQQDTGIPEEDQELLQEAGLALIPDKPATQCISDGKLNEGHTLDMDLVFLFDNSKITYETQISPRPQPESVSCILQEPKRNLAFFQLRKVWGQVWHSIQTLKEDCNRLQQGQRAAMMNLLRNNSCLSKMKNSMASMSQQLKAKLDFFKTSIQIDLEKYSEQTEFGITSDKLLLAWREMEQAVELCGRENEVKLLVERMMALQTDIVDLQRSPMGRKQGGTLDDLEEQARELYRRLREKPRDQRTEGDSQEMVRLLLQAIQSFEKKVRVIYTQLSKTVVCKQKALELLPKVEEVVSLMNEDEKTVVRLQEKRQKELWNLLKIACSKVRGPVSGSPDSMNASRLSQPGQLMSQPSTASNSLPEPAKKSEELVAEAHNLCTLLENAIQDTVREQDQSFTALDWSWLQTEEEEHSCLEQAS

MNK1 = MNK1 (Homo sapiens, UniProt Q9BUB5); experiment: biochemical; details: read-out: % inhibition
MST1 = target: T6, MST1 (Homo sapiens, UniProt Q13043); experiment: biochemical; details: read-out: % inhibition
T6 sequence (Q13043 1-487): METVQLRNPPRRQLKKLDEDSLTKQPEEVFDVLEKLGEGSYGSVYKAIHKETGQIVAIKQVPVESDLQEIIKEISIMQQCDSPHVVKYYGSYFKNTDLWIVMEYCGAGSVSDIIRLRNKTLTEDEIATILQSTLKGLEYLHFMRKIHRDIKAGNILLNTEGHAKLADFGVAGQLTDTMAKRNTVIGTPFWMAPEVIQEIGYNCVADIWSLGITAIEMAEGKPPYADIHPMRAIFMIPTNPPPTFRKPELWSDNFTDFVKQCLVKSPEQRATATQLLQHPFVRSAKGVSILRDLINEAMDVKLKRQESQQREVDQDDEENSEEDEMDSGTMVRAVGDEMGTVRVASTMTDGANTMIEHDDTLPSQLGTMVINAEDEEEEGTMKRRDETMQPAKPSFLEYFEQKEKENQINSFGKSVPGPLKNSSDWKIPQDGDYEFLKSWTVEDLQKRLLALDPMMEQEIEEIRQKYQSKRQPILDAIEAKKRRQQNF

PKA = PKA (Homo sapiens, UniProt P17612); experiment: biochemical; details: read-out: % inhibition
PKCbeta1 = PKCbeta1 (Homo sapiens, UniProt P05771); experiment: biochemical; details: read-out: % inhibition
PKCdelta = PKCdelta (Homo sapiens, UniProt Q05655); experiment: biochemical; details: read-out: % inhibition
PKCepsilon = target: T7, PKCepsilon (Homo sapiens, UniProt Q02156); experiment: biochemical; details: read-out: % inhibition
T7 sequence (Q02156 1-737): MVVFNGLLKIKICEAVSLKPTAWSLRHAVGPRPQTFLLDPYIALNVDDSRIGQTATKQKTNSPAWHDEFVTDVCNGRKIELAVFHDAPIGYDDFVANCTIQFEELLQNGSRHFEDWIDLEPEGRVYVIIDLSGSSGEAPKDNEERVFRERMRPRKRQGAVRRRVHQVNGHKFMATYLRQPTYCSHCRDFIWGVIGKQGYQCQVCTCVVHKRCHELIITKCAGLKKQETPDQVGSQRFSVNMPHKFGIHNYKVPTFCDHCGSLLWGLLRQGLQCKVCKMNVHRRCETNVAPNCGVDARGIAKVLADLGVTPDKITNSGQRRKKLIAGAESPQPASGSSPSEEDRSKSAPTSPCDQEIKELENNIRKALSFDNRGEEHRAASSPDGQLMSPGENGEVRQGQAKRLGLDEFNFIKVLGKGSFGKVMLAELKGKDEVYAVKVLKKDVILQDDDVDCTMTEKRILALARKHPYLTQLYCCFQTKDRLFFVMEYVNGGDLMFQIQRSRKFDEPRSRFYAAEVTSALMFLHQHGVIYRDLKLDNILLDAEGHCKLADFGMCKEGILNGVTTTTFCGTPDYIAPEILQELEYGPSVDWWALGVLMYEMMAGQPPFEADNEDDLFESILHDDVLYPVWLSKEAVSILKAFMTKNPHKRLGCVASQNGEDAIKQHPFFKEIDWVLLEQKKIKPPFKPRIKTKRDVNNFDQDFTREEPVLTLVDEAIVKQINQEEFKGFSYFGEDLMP

PKCtheta [4] = target: T8, PKCtheta (Homo sapiens, UniProt Q04759); experiment: biochemical; details: read-out: % inhibition
PKG = target: T9, PKG (Homo sapiens, UniProt Q13976); experiment: biochemical; details: read-out: % inhibition
T9 sequence (Q13976 1-671): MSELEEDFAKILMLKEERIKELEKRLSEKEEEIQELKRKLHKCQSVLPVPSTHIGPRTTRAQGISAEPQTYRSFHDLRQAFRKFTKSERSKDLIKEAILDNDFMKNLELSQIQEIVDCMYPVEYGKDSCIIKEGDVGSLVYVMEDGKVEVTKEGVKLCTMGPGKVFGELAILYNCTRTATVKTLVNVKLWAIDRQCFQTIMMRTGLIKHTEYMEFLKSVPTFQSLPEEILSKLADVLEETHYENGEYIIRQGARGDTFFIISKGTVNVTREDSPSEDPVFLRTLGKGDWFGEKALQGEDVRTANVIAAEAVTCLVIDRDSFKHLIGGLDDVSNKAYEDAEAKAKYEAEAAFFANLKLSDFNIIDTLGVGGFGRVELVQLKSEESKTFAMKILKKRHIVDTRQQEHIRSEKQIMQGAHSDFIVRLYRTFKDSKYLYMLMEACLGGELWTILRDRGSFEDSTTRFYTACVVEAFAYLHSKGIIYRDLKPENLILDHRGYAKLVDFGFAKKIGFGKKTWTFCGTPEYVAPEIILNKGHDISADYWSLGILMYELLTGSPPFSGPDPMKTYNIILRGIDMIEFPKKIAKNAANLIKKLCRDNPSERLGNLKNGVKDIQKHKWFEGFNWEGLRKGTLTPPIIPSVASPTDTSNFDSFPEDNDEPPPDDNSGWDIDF

PKG1b = target: T10, PKG1b (Homo sapiens, UniProt Q13976); experiment: biochemical; details: read-out: % inhibition
T10 sequence (Q13976 1-671): T9 sequence (Q13976 1-671)

PRKX = target: T11, PRKX (Homo sapiens, UniProt P51817); experiment: biochemical; details: read-out: % inhibition
T11 sequence (P51817 1-358): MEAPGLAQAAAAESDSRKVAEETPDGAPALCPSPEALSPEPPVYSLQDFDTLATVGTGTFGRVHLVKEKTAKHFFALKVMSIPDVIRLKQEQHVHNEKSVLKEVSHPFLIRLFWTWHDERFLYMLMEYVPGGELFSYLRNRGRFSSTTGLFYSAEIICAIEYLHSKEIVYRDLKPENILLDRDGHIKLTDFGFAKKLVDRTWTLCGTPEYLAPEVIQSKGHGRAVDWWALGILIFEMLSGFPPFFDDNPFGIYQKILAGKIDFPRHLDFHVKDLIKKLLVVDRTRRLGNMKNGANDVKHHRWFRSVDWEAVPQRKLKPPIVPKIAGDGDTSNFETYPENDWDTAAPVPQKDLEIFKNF

ROCK1 [5] = target: T1, ROCK1; experiment: biochemical; details: read-out: % inhibition
ROCK2 [6] = target: T3, ROCK2; experiment: biochemical; details: read-out: % inhibition
RSK1 = RSK1 (Homo sapiens, UniProt Q15418); experiment: biochemical; details: read-out: % inhibition
RSK2 = RSK2 (Homo sapiens, UniProt P51812); experiment: biochemical; details: read-out: % inhibition
RSK3 = RSK3 (Homo sapiens, UniProt Q15349); experiment: biochemical; details: read-out: % inhibition
STK10 [7] = target: T2, STK10; experiment: biochemical; details: read-out: % inhibition
STK10 [8] = target: T2, STK10; experiment: ProfilerPro kinase panel, % inhibition at […]; format: biochemical; details: read-out: Compound / Y27632
PKCtheta [9] = target: T8, PKCtheta; experiment: ProfilerPro kinase panel, % inhibition at […]; format: biochemical; details: read-out: Compound / Y27632
ROCK2 [10] = target: T3, ROCK2; experiment: ProfilerPro kinase panel, % inhibition at […]; format: biochemical; details: read-out: Compound / OXA-06
ROCK1 [11] = target: T1, ROCK1; experiment: biochemical; details: read-out: Compound / OXA-06

T3 sequence (O75116 whole entry): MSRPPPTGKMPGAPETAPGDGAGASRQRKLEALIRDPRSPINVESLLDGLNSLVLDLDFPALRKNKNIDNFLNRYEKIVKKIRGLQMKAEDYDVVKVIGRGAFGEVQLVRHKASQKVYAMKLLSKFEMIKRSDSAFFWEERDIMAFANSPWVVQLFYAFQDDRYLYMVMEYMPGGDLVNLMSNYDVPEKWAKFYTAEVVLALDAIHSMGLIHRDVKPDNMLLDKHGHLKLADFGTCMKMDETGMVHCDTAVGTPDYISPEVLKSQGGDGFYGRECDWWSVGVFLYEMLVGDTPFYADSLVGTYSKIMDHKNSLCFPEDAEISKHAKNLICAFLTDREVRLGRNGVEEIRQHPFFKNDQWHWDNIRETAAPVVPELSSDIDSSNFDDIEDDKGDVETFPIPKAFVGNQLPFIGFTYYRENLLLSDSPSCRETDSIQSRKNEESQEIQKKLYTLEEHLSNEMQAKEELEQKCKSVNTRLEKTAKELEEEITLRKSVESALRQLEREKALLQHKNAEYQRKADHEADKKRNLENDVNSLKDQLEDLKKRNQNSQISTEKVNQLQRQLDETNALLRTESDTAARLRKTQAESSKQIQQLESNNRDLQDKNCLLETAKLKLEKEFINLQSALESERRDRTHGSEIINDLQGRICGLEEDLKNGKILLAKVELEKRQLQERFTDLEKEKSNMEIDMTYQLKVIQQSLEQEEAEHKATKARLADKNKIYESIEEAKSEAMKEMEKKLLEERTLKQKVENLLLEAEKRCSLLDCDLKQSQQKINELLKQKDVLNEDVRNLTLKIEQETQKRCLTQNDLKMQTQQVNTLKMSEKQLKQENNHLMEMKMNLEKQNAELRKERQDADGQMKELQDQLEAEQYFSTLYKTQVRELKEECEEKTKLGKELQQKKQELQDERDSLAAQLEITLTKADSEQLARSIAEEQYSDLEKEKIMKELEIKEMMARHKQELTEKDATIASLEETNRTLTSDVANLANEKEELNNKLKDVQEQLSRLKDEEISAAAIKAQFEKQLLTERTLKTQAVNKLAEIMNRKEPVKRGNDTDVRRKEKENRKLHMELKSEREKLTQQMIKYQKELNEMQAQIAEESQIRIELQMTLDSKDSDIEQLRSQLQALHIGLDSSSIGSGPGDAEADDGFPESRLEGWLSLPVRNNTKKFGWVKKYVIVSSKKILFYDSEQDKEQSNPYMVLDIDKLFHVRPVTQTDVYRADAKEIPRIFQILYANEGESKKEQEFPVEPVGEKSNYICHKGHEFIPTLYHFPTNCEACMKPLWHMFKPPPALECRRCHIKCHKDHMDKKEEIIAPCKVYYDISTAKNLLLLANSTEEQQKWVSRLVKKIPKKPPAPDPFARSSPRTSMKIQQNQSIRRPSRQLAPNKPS
T2 sequence (O94804 whole entry): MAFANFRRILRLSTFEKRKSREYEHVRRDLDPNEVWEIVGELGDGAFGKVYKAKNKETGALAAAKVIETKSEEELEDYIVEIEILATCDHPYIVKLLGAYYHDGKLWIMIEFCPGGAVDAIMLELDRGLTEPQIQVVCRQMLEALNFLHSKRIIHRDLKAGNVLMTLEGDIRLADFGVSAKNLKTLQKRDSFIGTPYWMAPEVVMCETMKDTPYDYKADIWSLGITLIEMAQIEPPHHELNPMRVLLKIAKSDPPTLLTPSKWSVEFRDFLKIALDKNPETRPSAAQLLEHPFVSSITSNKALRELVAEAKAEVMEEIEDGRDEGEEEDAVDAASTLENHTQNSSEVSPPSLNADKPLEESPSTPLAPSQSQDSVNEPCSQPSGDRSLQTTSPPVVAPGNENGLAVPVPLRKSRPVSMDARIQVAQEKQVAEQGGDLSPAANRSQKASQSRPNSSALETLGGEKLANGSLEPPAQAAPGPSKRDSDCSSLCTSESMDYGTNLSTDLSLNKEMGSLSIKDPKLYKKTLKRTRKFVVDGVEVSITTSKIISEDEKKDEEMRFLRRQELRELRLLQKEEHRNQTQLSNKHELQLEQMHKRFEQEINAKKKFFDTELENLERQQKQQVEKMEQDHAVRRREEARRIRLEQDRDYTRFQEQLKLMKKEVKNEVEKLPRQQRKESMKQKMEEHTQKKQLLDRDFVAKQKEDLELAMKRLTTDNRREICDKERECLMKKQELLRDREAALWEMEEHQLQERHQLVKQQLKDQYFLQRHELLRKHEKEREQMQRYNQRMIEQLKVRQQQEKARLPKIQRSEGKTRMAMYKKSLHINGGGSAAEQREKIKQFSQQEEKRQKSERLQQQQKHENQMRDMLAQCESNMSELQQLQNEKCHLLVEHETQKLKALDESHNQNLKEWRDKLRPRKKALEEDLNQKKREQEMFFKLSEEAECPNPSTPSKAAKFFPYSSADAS
MNK1, sequence (Q9BUB5 whole entry): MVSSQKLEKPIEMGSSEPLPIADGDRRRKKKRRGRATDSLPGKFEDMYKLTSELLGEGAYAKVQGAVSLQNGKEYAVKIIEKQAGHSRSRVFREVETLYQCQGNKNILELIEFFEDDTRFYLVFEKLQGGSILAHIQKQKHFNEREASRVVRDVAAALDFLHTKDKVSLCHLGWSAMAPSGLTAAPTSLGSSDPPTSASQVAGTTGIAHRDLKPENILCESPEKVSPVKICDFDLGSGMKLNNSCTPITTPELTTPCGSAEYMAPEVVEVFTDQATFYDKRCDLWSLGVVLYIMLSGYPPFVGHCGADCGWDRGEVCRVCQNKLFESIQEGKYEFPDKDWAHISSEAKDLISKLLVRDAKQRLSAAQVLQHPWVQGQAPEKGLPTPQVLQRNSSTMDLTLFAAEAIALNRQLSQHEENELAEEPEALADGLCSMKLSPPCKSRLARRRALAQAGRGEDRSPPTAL
T8 sequence (Q04759 whole entry): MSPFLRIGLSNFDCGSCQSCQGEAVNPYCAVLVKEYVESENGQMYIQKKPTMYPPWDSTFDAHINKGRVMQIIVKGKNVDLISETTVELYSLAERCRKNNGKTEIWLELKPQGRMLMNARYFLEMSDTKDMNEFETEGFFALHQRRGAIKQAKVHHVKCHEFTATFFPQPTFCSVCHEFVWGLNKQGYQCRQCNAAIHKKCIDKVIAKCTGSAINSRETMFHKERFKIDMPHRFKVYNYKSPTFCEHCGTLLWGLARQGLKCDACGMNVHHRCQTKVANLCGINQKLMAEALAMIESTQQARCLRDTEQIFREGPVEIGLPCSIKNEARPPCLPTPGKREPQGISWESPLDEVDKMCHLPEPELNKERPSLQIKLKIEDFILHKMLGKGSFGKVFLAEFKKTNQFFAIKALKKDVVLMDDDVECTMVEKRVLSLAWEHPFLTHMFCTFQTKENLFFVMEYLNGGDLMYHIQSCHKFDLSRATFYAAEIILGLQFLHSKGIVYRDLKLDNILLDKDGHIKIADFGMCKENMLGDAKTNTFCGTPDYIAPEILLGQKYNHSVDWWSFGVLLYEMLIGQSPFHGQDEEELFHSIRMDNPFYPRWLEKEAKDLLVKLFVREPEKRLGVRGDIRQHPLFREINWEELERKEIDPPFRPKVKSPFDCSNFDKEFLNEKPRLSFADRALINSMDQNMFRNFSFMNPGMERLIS
RSK3, sequence (Q15349 whole entry): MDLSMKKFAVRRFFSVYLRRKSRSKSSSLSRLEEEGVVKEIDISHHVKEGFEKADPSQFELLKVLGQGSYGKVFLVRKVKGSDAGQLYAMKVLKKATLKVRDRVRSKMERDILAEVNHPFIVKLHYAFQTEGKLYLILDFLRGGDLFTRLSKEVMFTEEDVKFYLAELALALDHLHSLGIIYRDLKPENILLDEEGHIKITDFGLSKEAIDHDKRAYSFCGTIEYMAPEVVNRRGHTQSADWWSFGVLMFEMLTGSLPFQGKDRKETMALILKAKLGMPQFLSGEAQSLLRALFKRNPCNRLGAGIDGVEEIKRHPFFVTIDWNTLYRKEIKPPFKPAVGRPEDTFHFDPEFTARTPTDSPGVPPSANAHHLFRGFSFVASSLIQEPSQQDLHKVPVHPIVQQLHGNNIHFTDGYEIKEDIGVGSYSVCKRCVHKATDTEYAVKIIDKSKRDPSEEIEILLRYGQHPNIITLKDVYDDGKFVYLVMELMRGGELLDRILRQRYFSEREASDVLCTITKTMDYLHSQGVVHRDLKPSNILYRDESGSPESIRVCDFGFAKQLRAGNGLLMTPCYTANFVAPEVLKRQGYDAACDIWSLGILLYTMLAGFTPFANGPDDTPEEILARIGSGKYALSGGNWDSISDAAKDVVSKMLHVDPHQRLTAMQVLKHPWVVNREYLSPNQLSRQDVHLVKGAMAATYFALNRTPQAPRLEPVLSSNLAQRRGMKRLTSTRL
RSK1, sequence (Q15418 whole entry): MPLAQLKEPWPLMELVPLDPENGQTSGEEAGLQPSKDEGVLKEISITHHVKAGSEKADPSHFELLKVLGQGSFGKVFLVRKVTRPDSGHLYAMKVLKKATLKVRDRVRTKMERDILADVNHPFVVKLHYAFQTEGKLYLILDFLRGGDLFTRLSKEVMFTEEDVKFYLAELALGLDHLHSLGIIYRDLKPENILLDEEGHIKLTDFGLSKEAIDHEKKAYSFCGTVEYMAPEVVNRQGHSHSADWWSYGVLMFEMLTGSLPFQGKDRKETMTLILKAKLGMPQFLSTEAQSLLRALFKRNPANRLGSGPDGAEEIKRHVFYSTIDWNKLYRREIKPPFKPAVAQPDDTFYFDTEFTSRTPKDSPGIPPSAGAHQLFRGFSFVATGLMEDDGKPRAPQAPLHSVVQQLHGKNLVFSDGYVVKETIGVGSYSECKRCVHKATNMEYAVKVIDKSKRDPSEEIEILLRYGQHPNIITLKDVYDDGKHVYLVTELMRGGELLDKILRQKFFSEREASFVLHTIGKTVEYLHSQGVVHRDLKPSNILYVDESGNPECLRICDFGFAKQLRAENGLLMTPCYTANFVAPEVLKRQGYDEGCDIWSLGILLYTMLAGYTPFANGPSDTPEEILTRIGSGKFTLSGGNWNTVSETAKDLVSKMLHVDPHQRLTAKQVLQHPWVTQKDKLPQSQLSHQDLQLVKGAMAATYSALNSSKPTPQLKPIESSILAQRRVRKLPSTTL

## Fc1ccccc1CNCc1ccc(-c2ccnc3[nH]ccc23)cc1 [OXA-06]
ROCK1 [1]
  Compound / OXA-06: 94
STK10 [2]
  Compound / OXA-06: 58
ROCK2 [3]
  Compound / OXA-06: 95
ARK5
  inhibition at 0.2 µM: 56%
IKKbeta
  inhibition at 0.2 µM: 56%
MNK1
  inhibition at 0.2 µM: 16%
MST1
  inhibition at 0.2 µM: 19%
PKA
  inhibition at 0.2 µM: 98%
PKCbeta1
  inhibition at 0.2 µM: -3%
PKCdelta
  inhibition at 0.2 µM: 36%
PKCepsilon
  inhibition at 0.2 µM: 26%
PKCtheta [4]
  inhibition at 0.2 µM: 12%
PKG
  inhibition at 0.2 µM: 72%
PKG1b
  inhibition at 0.2 µM: 73%
PRKX
  inhibition at 0.2 µM: 56%
ROCK1 [5]
  inhibition at 0.2 µM: 94%
ROCK2 [6]
  inhibition at 0.2 µM: 95%
RSK1
  inhibition at 0.2 µM: 6%
RSK2
  inhibition at 0.2 µM: 17%
RSK3
  inhibition at 0.2 µM: 10%
STK10 [7]
  inhibition at 0.2 µM: 58%

## C[C@@H](N)[C@H]1CC[C@H](C(=O)Nc2ccncc2)CC1 [Y-27632]
STK10 [8]
  inhibition at 10 µM: 87%
PKCtheta [9]
  inhibition at 10 µM: 82%
ROCK2 [10]
  inhibition at 10 µM: 95%
ARK5
  inhibition at 10 µM: 1%
IKKbeta
  inhibition at 10 µM: 82%
MNK1
  inhibition at 10 µM: 78%
MST1
  inhibition at 10 µM: 59%
PKA
  inhibition at 10 µM: 29%
PKCbeta1
  inhibition at 10 µM: 52%
PKCdelta
  inhibition at 10 µM: 55%
PKG
  inhibition at 10 µM: 64%
PKG1b
  inhibition at 10 µM: 68%
PRKX
  inhibition at 10 µM: 78%
RSK1
  inhibition at 10 µM: 51%
RSK3
  inhibition at 10 µM: 82%
ROCK1 [11]
  inhibition at 10 µM: 94%

From PMC3810962 (Cancer research, 2012)
